{
  "source": "paper PMC12320831",
  "about": "“Synthesis and Biological Evaluation of New Chalcogen Semicarbazone (S, Se) and Their Azole Derivatives against Chagas Disease” (Journal of Medicinal Chemistry, 2024)",
  "key": {"[1]": {"experiment": "Snapshot pharmacokinetic study in mice", "format": "in vivo, Balb/c mice", "protocol": "Compound Se 2h was administered intravenously (5 mg/kg in 10% dimethyl sulfoxide, 30% propylene glycol, 30% PEG 400, and 30% of 10.0% Tween 80 in DI water) and by oral gavage (50 mg/kg in PEG 400 with 5% 1-methyl-2-pyrrolidone) in two female Balb/c mice (6 weeks old) for each group. Blood samples (∼25 μL) were collected with heparinized capillary tubes via the eye vein on mice anesthetized with isoflurane precompound administration and in the following times post administration: 30 min, 1 h, 2 h, 4 h. Samples were immediately centrifuged for plasma collection (supernatant). The animal experiment was approved by the UC San Diego IACUC committee under the protocol S14187 and follow all the ethical standards. The material was submitted for mass spectrometry quantification with provided known amounts spiked in naïve plasma for reference curve."}, "T. cruzi CAI/72 strain": {"system": "T. cruzi CAI/72 strain", "experiment": "Antiparasitic activity in C2C12 cells infected with T. cruzi CAI/72 (image-based assay)", "format": "cell-based", "details": "for EC50: read-out: EC50 Tc CAI/72, intracellular amastigotes in C2C12 cells, 48 h, mean of three experiments in triplicate (n = 9) ± SD"}, "recombinant Cz (cruzain)": {"target": "T1, recombinant Cz (cruzain) (Trypanosoma cruzi, UniProt P25779)", "T1 construct": "Cz was expressed and purified as described in da Silva et al; made in house", "T1 sequence (P25779 123-337 limits assumed)": "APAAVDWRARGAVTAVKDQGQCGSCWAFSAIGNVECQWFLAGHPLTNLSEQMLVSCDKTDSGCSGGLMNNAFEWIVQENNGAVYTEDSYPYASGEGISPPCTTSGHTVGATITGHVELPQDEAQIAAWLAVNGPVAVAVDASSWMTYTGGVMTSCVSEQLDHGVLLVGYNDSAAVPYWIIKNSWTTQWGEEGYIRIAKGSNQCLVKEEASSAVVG", "experiment": "biochemical", "details": "for SICz: ratio between IC50 hCatL and IC50 Cz", "how_it_was_run": "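Cruzain (1 nM) was preincubated 10 min with compound in 0.1 M sodium acetate pH 5.5, 1 mM DTT, 0.01% Triton X-100, then 2.5 μM Z-FR-AMC (final) was added. Fluorescence (360/460 nm) was read for 10 min at 25 °C and normalized to DMSO.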"}, "[2]": {"experiment": "DPPH radical scavenging (antioxidant) assay", "details": "for Percentage of inhibited DPPH (2 h): mean ± SEM", "protocol": "The antioxidant capacity of the selected Se compound was tested using the DPPH assay described by Astrain-Redin. The compound was tested at three different concentrations (0.06, 0.03, and 0.015 mg/mL) and we used two positive controls: ascorbic acid (ASC) and trolox (TRO). A solution of DPPH (2,2-diphenyl-1-picrylhydrazyl) in methanol (0.04 mg/mL, preserved in the dark) was prepared and 100 μL of this stock solution was added to 100 μL of tested compound solution. The color change, from purple (radical) to yellow (reduced), was measured at 517 nm at different time points (0, 5, 15, 30, 60, 90, and 120 min). All measurements were carried out in triplicate and recorded on a BioTek PowerWave XS spectrophotometer (Biotek). Data were collected using BioTek Gen5Microplate reader and Imager software (Agilent, version 3.12). Results are expressed as a percentage of inhibited DPPH ± standard error of the mean (SEM), calculated using the following formula %inhibitedDPPH=Acontrol−Asample/Acontrol×100 where A control refers to the absorbance of the negative control and A sample refers to the absorbance of the tested compound."}},
  "note": "Values joined by “and” are separate entries in the source; they are usually repeats but may differ in a detail not shown here. Equal values may be shown once. Read-outs that look alike come from different tables or passages of the source.",
  "data": [
    {"compound": "C/C(=N\\Nc1nc(C)c[se]1)c1cccc([N+](=O)[O-])c1.Cl", "note": "[Se2h, (E)-4-Methyl-2-(2-(1-(3-nitrophenyl)ethylidene)hydrazineyl)-1,3-selenazole Hydrochloride]", "values": [
      {"measurement": "acute toxicity in the PK study", "setting": "[1]; 5 mg/kg intravenous and 50 mg/kg oral", "result": "no signs of acute toxicity"},
      {"measurement": "bioavailability", "setting": "[1]; female, Balb/c, mouse, plasma, 50 mg/kg oral vs 5 mg/kg intravenous", "result": 82, "unit": "%"},
      {"measurement": "Cmax at 0.5 h", "setting": "[1]; female, Balb/c, mouse, plasma, oral dose 50 mg/kg", "result": 2300, "unit": "nM"},
      {"measurement": "half-life", "setting": "[1]; female, Balb/c, mouse, plasma, other: intravenous and oral, 5 mg/kg intravenous and 50 mg/kg oral, read-out: half-life (T 1/2)", "result": "< 1", "unit": "h"},
      {"measurement": "time of C max post administration", "setting": "[1]; oral dose 50 mg/kg", "result": 30, "unit": "min"},
      {"measurement": "inhibition at 10 µM", "setting": "T. cruzi CAI/72 strain; Trypanosoma cruzi, C2C12, read-out: Anti-Tc CAI/72 activity (%)", "result": 57.7, "unit": "%"},
      {"measurement": "EC50", "setting": "T. cruzi CAI/72 strain", "result": "310 ± 180", "unit": "nM"},
      {"measurement": "EC50", "setting": "T. cruzi CAI/72 strain; listed as Se 2h", "result": "< 1000", "unit": "nM"},
      {"measurement": "Cz inhibition (%)", "setting": "recombinant Cz (cruzain); 10 µM", "result": 100.09, "unit": "%"},
      {"measurement": "IC50", "setting": "recombinant Cz (cruzain); IC50 Cz, single biological replicate (Figure 3), each of two biological replicates in triplicate", "result": "3.4 nM and 14.5 nM"},
      {"measurement": "IC50", "setting": "recombinant Cz (cruzain); mean of two experiments in triplicate (n = 6) ± SEM, read-out: IC50 Cz", "result": "8.99 ± 5.56", "unit": "nM"},
      {"measurement": "SICz", "setting": "recombinant Cz (cruzain)", "result": 148.83},
      {"measurement": "SICz", "setting": "recombinant Cz (cruzain); listed as Se 2h", "result": 149},
      {"measurement": "inhibition at 10 µM", "setting": "recombinant Cz (cruzain); read-out: Cz inhibition (%), 10 µM", "result": "> 85", "unit": "%"},
      {"measurement": "Percentage of inhibited DPPH (2 h)", "setting": "[2]; 0,03 mg/ml", "result": "78,00 ± 1,73%"},
      {"measurement": "Percentage of inhibited DPPH (2 h)", "setting": "[2]; 0,06 mg/ml", "result": "78,33 ± 1,76%"},
      {"measurement": "time to reach the plateau of the DPPH kinetic curve", "setting": "[2]; 0.015 mg/mL", "result": 30, "unit": "min"},
      {"measurement": "Percentage of inhibited DPPH (2 h)", "setting": "[2]; 0,015 mg/ml", "result": "77,33 ± 0,88%"},
      {"measurement": "inhibition of DPPH after 2 h", "setting": "[2]; all tested concentrations (0.06, 0.03 and 0.015 mg/mL)", "result": "more than 60%"}
    ]}
  ]
}
